Experimental data taken from ChEMBL document CHEMBL2346547, “Bifunctional inhibition of human immunodeficiency virus type 1 reverse transcriptase: mechanism and proof-of-concept as a novel therapeutic design strategy” (J Med Chem, 2013).

Columns and labels:
[1] = molecular target: T1, Human immunodeficiency virus type 1 reverse transcriptase (Human immunodeficiency virus 1, UniProt Q72547); assay: Competitive inhibition of C-Terminal histidine-tagged wild type heterodimeric HIV-1 reverse transcriptase p66/p51 assessed as inhibition of dGTP incorporation after 15 mins by PAGE
[2] = molecular target: T1, Human immunodeficiency virus type 1 reverse transcriptase; assay: Competitive inhibition of C-Terminal histidine-tagged wild type heterodimeric HIV-1 reverse transcriptase p66/p51 assessed as inhibition of dTTP incorporation after 15 mins by PAGE

Row | SMILES | IC50 [1] [nM] | IC50 [2] [nM]
1 | C#CCOCCOCCOCCOCCOCC#Cc1cc(C)c(Oc2ccnc(Nc3ccc(C#N)cc3)n2)c(C)c1 | 64 | 122
2 | Cc1cc(C#CCOCCOCCOCCOCCOCC#Cc2cn([C@H]3C=C[C@@H](COP(=O)(O)OP(=O)(O)OP(=O)(O)O)O3)c(=O)[nH]c2=O)cc(C)c1Oc1ccnc(Nc2ccc(C#N)cc2)n1 | 42 | 3
3 | Cc1cc(C#N)cc(C)c1Oc1ccnc(Nc2ccc(C#N)cc2)n1 | 9 | 13
4 | Cc1cn([C@H]2C=C[C@@H](COP(=O)(O)OP(=O)(O)OP(=O)(O)O)O2)c(=O)[nH]c1=O [STAVUDINE TRIPHOSPHATE] |  | 13000
